Source: patent US5250527A, “Pyridyl containing benzimidazoles, compositions and use” (SmithKline & French Laboratories Limited, priority 1988, dated 1993)

Columns and labels:
H^+ -K^+ -ATPase = molecular target: T1, H^+ -K^+ -ATPase (Sus scrofa, UniProt P19156); assay: K+ stimulated ATPase activity; format: biochemical; conditions: at pH 6.1 and 7.4; lyophilised gastric vesicles of pig fundic mucosa
T1 construct: alpha-beta complex
Procedure: The effects of a single high concentration (1 mM) of a compound of structure (I) on H^+ -K^+ ATPase were determined at pH 6.1 and pH 7.4.
Compounds of structure (I) were pre-incubated with H^+ -K^+ -ATPase preparation 30 μg protein/ml from (i) in 10 mM Pipes/Tris buffer pH 6.1 and pH 7.4.
After 30 min at 37° the preincubation was diluted 5-fold with assay buffer to start the ATPase reaction. The conditions in the assay are 100 mM Pipes/Tris, 2 mM MgCl2, 10 mM KCl, 5 μgml nigericin, 2 mM Na2 ATP, pH 7.0.
The effect of the same concentration of compound of structure (I) (preincubated with H^+ -K^+ -ATPase preparation at pH 7.4 as described above) on the recovery of 100 nmole of inorganic phosphate was also determined.
Compounds of structure (I) were initially dissolved in dimethyl sulphoxide, polyethylene glycol (Type 400) or Pipes/Tris buffer.
All data refer to the concentration of compound present in the preincubation before dilution with assay buffer.

[1] = system: rabbit intact gastric glands; assay: Aminopyrine (AP) accumulation in intact gastric glands; format: cell-based, New Zealand white rabbits; conditions: Oryctolagus cuniculus, 0.5 h, inhibition of aminopyrine accumulation, dibutyryl cAMP stimulated, pH 7.4, 30 min
Procedure: The effect of a single concentration (100 μm) of a compound of structure (I) on dibutyryl cAMP stimulated AP […] in rabbit intact gastric glands was determined. Preferred compounds of structure (I) were tested over a range of concentrations to determine the IC50 value.
Intact gastric glands were prepared from New Zealand white rabbits by the method of Berghindh et al. (Acta. Physio. Scand. 96, 150, 1976). Gastric mucosal scrapings were digested at 37° C. for 45-60 min. with Collagenase (100 U. Type 1. Sigma), and glands harvested by coarse filtration and sedimentation.
Test compound was incubated with glands and 300 μM dibutyryl CAMP for 30 minutes at […]. Incubating medium contained 132.5 mM NaCl, 5.4 Mm KCl, 1.0 mM NaH2 PO4. 5.0 mM Na2 HPO4, 1.2 mM MgSO4, 1.0 mM CaCl2, 11.1 mM glucose, 2.0 mg/ml rabbit albumin, 10 μg/ml phenol red, approximately 0.3 μM[^14 C] aminopyrine (110 mCi/mmole), pH 7.4.
After incubation, glands were centrifuged and the supernatant removed. The glands were dried, weighed and dissolved in NaOH. The distribution of radioactivity between the supernatant and glands is then used to calculate the AP ratio after the method of Berglindh et al. (Acta. Physiol. Scand. 97, 401, 1976).
The IC50 value is the amount of compound required to inhibit the […] accumulation of aminopyrine by 50%.

[2] = system: Histamine-Stimulated Gastric Acid Secretion; assay: Dog: Conscious Heidenhain Pouch (Histamine-Stimulated Gastric Acid Secretion); format: in vivo; conditions: Canis lupus familiaris, intravenous
From the text: B. Dog: Conscious Heidenhain Pouch (Histamine-Stimulated Gastric Acid Secretion)
Using dogs surgically prepared with Heidenhain pouches 1 to 3 years previously, inhibitory ED50 values against histamine stimulated gastric acid secretion after intravenous administration were obtained.

[3] = system: Histamine Stimulated Gastric Acid Secretion; assay: Rat: Lumen Perfumed Stomach (Histamine Stimulated Gastric Acid Secretion); format: in vivo; conditions: i.v.
From the text: C. Rat: Lumen Perfumed Stomach (Histamine Stimulated Gastric Acid Secretion)
Using a modification of the procedure described by Ghosh and Schild (Br. J. Pharmacology, 13, 54, 1958), ED50 values after either intraduodenal (i.d) or intravenous (i.v) administration were obtained as follows: […]

T1 sequence (P19156 whole entry): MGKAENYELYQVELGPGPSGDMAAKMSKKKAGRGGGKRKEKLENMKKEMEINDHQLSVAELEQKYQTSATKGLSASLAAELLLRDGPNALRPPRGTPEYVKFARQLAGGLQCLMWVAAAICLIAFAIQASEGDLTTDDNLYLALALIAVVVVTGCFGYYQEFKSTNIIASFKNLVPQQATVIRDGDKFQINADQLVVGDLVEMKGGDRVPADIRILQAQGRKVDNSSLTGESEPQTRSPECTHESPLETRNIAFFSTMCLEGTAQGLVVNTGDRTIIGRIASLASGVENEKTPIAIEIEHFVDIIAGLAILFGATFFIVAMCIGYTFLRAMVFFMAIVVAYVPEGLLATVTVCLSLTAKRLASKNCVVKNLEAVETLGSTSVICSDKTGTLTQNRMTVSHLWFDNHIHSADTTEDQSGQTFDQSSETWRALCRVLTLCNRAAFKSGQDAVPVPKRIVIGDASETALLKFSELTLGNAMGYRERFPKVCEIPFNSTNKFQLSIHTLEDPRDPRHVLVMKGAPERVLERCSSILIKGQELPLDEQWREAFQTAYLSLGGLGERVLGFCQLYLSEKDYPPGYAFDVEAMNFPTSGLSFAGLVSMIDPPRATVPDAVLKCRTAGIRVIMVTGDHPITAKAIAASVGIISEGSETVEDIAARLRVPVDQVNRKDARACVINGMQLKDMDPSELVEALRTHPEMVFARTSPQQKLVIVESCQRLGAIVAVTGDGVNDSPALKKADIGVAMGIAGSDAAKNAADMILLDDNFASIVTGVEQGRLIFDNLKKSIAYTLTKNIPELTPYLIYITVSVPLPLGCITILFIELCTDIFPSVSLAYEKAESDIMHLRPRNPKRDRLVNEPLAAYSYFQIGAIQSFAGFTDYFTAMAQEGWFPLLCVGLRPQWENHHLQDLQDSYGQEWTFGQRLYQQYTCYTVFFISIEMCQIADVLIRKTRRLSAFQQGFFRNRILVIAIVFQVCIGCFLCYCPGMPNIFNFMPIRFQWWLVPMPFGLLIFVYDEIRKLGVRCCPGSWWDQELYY
T1 sequence (P18434 whole entry partner): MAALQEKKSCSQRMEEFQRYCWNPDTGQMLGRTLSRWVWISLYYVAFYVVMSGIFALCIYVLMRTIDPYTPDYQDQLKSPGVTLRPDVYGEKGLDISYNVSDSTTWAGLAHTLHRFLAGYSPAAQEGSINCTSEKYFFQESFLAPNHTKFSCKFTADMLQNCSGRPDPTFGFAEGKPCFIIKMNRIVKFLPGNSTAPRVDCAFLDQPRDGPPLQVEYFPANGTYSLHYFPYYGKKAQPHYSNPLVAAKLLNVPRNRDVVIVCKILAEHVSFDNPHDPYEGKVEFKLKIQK

Compound | inhibition of potassium stimulated ATPase activity (H^+ -K^+ -ATPase) | IC50 [1] | ED50 [2] | % inhibition at 1 μM/kg [3]
2-(4-piperidino-3-chloro-5-methyl-2-pyridylmethylsulphinyl)-4, 5-difluoromethylenedioxy-(1H)-benzimidazole [Example 24] | found to inhibit potassium stimulated ATPase activity | – | – | –
COc1ccc2[nH]c([S+]([O-])Cc3cc(N)c(Br)cn3)nc2c1 (stereo not drawn) [Example 2, 2 -(4 -amino-5 -bromo-2 -pyridylmethylsulphinyl)-5 -methoxy-(1H)-benzimidazole] | found to inhibit potassium stimulated ATPase activity | 6.6 µM | 2.94 µmol/kg | –
COc1ccc2[nH]c([S+]([O-])Cc3nccc(N4CCOCC4)c3Cl)nc2c1 (stereo not drawn) [Example 4, 2 -(4 -morpholino-3 -chloro-2 -pyridylmethylsulphinyl)-5 -methoxy-(1H)-benzimidazole] | found to inhibit potassium stimulated ATPase activity | 11 µM | 1 µmol/kg | –
COc1ccc2[nH]c([S+]([O-])Cc3ncc(C)c(N4CCOCC4)c3Cl)nc2c1 (stereo not drawn) [Example 6, 2 -(4 -morpholino-3 -chloro-5 -methyl-2 -pyridylmethylsulphinyl)-5 -methoxy-(1H)-benzimidazole] | found to inhibit potassium stimulated ATPase activity | 16.3 µM | 2.2 µmol/kg | –
COc1ccc2[nH]c([S+]([O-])Cc3ncc(C)c(N4CCCCC4)c3Cl)nc2c1 (stereo not drawn) [Example 8, 2 -(4 -piperidino-3 -chloro-5 -methyl-2 -pyridylmethylsulphinyl)-5 -methoxy-(1H)-benzimidazole] | found to inhibit potassium stimulated ATPase activity | 4.2 µM | – | –
COc1ccc2[nH]c([S+]([O-])Cc3nccc(N4CCCCC4)c3Cl)nc2c1 (stereo not drawn) [Example 10, 2 -(4 -piperidino-3 -chloro-2 -pyridylmethylsulphinyl)-5 -methoxy-(1H)-benzimidazole] | found to inhibit potassium stimulated ATPase activity | 2 µM | 1.2 µmol/kg | –
COc1ccc2[nH]c([S+]([O-])Cc3nccc(N4CCCC4)c3Cl)nc2c1 (stereo not drawn) [Example 12, 2 -(4 -pyrrolidino-3 -chloro-2 -pyridylmethylsulphinyl)-5 -methoxy-(1H)-benzimidazole] | found to inhibit potassium stimulated ATPase activity | 1 to 10 µM | – | –
COc1ccc2[nH]c([S+]([O-])Cc3ncc(C)c(N4CCCC4)c3Cl)nc2c1 (stereo not drawn) [Example 14, 2 -(4 -pyrrolidino-3 -chloro-5 -methyl-2 -pyridylmethylsulphinyl)-5 -methoxy-(1H)-benzimidazole] | found to inhibit potassium stimulated ATPase activity | 2.6 µM | – | –
COc1ccc2[nH]c([S+]([O-])Cc3ncc(C)c(N(C)C)c3Cl)nc2c1 (stereo not drawn) [Example 16, 2 -(4 -dimethylamino-3 -chloro-5 -methyl-2 -pyridylmethylsulphinyl)-5 -methoxy-(1H)-benzimidazole] | found to inhibit potassium stimulated ATPase activity | 3.7 µM | 0.29 µmol/kg | –
COc1ccc2[nH]c([S+]([O-])Cc3cc(N4CCCCC4)c(Br)cn3)nc2c1 (stereo not drawn) [Example 18, 2-(4-piperidino-5-bromo-2-pyridylmethylsulphinyl)-5-methoxy-(1H)-benzimidazole] | found to inhibit potassium stimulated ATPase activity | 1.6 µM | – | –
COc1ccc2[nH]c([S+]([O-])Cc3nccc(N4CCCCC4)c3Br)nc2c1 (stereo not drawn) [Example 20, 2-(4-piperidino-3-bromo-2-pyridylmethylsulphinyl)-5-methoxy-(1H)-benzimidazole] | found to inhibit potassium stimulated ATPase activity | 1.3 µM | – | –
COc1ccc2[nH]c([S+]([O-])Cc3ncc(Br)c(N4CCCCC4)c3C)nc2c1 (stereo not drawn) [Example 22, 2-(4-piperidino-5-bromo-3-methyl-2-pyridylmethylsulphinyl) -5-methoxy-(1H)-benzimidazole] | found to inhibit potassium stimulated ATPase activity | 9.2 µM | – | –
Cc1cnc(C[S+]([O-])c2nc3cc(OC(F)(F)C(F)F)ccc3[nH]2)c(Cl)c1N1CCCCC1 (stereo not drawn) [Example 23, 2-(4-piperidino-3-chloro-5-methyl-2-pyridylmethylsulphinyl)-5-(1,1,2,2-tetrafluoroethoxy)-(1H)-benzimidazole] | found to inhibit potassium stimulated ATPase activity | 1.9 µM | – | –
COc1ccc2[nH]c([S+]([O-])Cc3cc(N(C)C)c(Br)cn3)nc2c1 (stereo not drawn) [Example 25, 2-(4-dimethylamino-5-bromo-2-pyridylmethylsulphinyl)-5-methoxy-(1H)-benzimidazole] | found to inhibit potassium stimulated ATPase activity | – | 0.91 µmol/kg | –
COc1ccc2[nH]c([S+]([O-])Cc3cc(N4CCCC4)c(Br)cn3)nc2c1 (stereo not drawn) [Example 26, 2-(4-pyrrolidino-5-bromo-2-pyridylmethylsulphinyl)-5-methoxy-(1H)-benzimidazole] | found to inhibit potassium stimulated ATPase activity | – | – | –
COc1ccc2[nH]c([S+]([O-])Cc3nccc(N4CCOCC4)c3F)nc2c1 (stereo not drawn) [Example 28, 2-(4-morpholino-3-fluoro-2-pyridylmethylsulphinyl)-5-methoxy-(1H)-benzimidazole] | – | – | 2.75 µmol/kg | –
COc1ccc2[nH]c([S+]([O-])Cc3cc(N4CCOCC4)c(F)cn3)nc2c1 (stereo not drawn) [Example 30, 2-(4-morpholino-5-fluoro-2-pyridylmethylsulphinyl)-5-methoxy-(1H)-benzimidazole] | – | – | 5.07 µmol/kg | 51%
COc1ccc2[nH]c([S+]([O-])Cc3nccc(N(C)C)c3F)nc2c1 (stereo not drawn) [Example 32, 2-(4-dimethylamino-3-fluoro-2-pyridylmethylsulphinyl)-5-methoxy-(1H)-benzimidazole] | – | – | – | 26%
COc1ccc2[nH]c([S+]([O-])Cc3cc(N(C)C)c(F)cn3)nc2c1 (stereo not drawn) [Example 34, 2-(4-dimethylamino-5-fluoro-2-pyridylmethylsulphinyl)-5-methoxy-(1H)-benzimidazole] | – | – | – | 37%
COc1ccc2[nH]c([S+]([O-])Cc3ncc(F)c(N4CCOCC4)c3C)nc2c1 (stereo not drawn) [Example 36, 2-(4-morpholino-5-fluoro-3-methyl-2-pyridylmethylsulphinyl)-5-methoxy-(1H)-benzimidazole] | – | – | 2.05 µmol/kg | –
COc1cc2nc([S+]([O-])Cc3nccc(N4CCOCC4)c3F)[nH]c2cc1OC (stereo not drawn) [Example 38, 2-(4-morpholino-3-fluoro-2-pyridylmethylsulphinyl)-5,6-dimethoxy-(1H)-benzimidazole] | – | – | – | 33%
COc1cc2[nH]c([S+]([O-])Cc3nccc(N4CCOCC4)c3F)nc2cc1C (stereo not drawn) [Example 40, 2-(4-morpholino-3-fluoro-2-pyridylmethylsulphinyl)-5-methyl-6-methoxy-(1H)-benzimidazole] | – | – | 2.14 µmol/kg | –
COc1cc2nc([S+]([O-])Cc3nccc(N(C)C)c3F)[nH]c2cc1OC (stereo not drawn) [Example 42, 2-(4-dimethylamino-3-fluoro-2-pyridylmethylsulphinyl)-5,6-dimethoxy-(1H)-benzimidazole] | – | – | – | 46%
